Results published in the supplement of paper PMC10307832.

What was measured:
Test in all cases: relative viability (nuclei count vs DMSO), 5 days (fraction); higher = more cells survive
SGI-1776 + Linsitinib = compound: CN1CCC(CNc2ccc3ncc(-c4cccc(OC(F)(F)F)c4)n3n2)CC1 [SGI-1776] + C[C@]1(O)C[C@@H](c2nc(-c3ccc4ccc(-c5ccccc5)nc4c3)c3c(N)nccn32)C1 [Linsitinib] (partner 1 µM)
How it was run: (§1)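 One day after seeding in 1536-well plates, lung cancer cell lines were dosed by pin tool. Dosing was either single-drug or a fixed anchor-drug dose plus five library-drug doses (not always all listed) in √10 steps. After 5 days, nuclei were stained in one fix-and-stain step and counted on 4× images, and relative viability is the nuclei count of treated wells over that of vehicle wells, given as the median of duplicate plates.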

[1] = compound: C1COCCN1C2=NC(=NC3=C2OC4=C3C=CC=N4)C5=CC(=CC=C5)NC(=O)C6=CN=C(C=C6)N + NC(=O)Nc1cc(-c2cccc(F)c2)sc1C(=O)N[C@H]1CCCNC1 [AZD7762] (partner 0.2 µM)
How it was run: as §1

SGI-1776 + Palbociclib = compound: CN1CCC(CNc2ccc3ncc(-c4cccc(OC(F)(F)F)c4)n3n2)CC1 [SGI-1776] + CC(=O)c1c(C)c2cnc(Nc3ccc(N4CCNCC4)cn3)nc2n(C2CCCC2)c1=O [Palbociclib] (partner 0.5 µM)
How it was run: as §1

Entinostat + Palbociclib = compound: Nc1ccccc1NC(=O)c1ccc(CNC(=O)OCc2cccnc2)cc1 [Entinostat] + CC(=O)c1c(C)c2cnc(Nc3ccc(N4CCNCC4)cn3)nc2n(C2CCCC2)c1=O [Palbociclib] (partner 0.5 µM)
How it was run: as §1

| Cell Line | relative viability (SGI-1776 + Linsitinib; first compound 0.08 µM) | relative viability (SGI-1776 + Linsitinib; first compound 0.8 µM) | relative viability (SGI-1776 + Linsitinib; first compound 2.53 µM) | relative viability (SGI-1776 + Linsitinib; first compound 8 µM) | relative viability ([1]; first compound 0.02 µM) | relative viability ([1]; first compound 0.06325 µM) | relative viability ([1]; first compound 0.2 µM) | relative viability ([1]; first compound 0.6325 µM) | relative viability ([1]; first compound 2 µM) | relative viability (SGI-1776 + Palbociclib; first compound 0.08 µM) | relative viability (SGI-1776 + Palbociclib; first compound 0.8 µM) | relative viability (SGI-1776 + Palbociclib; first compound 2.53 µM) | relative viability (SGI-1776 + Palbociclib; first compound 8 µM) | relative viability (Entinostat + Palbociclib; first compound 0.02 µM) | relative viability (Entinostat + Palbociclib; first compound 0.06325 µM) | relative viability (Entinostat + Palbociclib; first compound 0.2 µM) | relative viability (Entinostat + Palbociclib; first compound 0.6325 µM) | relative viability (Entinostat + Palbociclib; first compound 2 µM) |
| --- | --- | --- | --- | --- | --- | --- | --- | --- | --- | --- | --- | --- | --- | --- | --- | --- | --- | --- |
| NCI-H1666 | 0.856 | 0.83 | 0.772 | 0.493 | 0.91 | 0.827 | 0.861 | 0.757 | 0.811 | 0.64 | 0.66 | 0.614 | 0.663 | 0.672 | 0.684 | 0.697 | 0.65 | 0.565 |
| NCI-H1734 | 0.919 | 0.895 | 0.935 | 0.749 | 0.661 | 0.612 | 0.497 | 0.498 | 0.422 | 0.387 | 0.339 | 0.345 | 0.283 | 0.385 | 0.375 | 0.402 | 0.347 | 0.256 |
| NCI-H1755 | 0.988 | 0.969 | 0.996 | 0.896 | 0.45 | 0.4 | 0.397 | 0.414 | 0.348 | 0.461 | 0.444 | 0.438 | 0.438 | 0.439 | 0.454 | 0.446 | 0.407 | 0.342 |
| NCI-H1792 | 0.479 | 0.543 | 0.503 | 0.647 | 0.593 | 0.707 | 0.509 | 0.544 | 0.386 | 0.659 | 0.626 | 0.59 | 0.615 | 0.709 | 0.745 | 0.723 | 0.626 | 0.523 |
| NCI-H1793 | 1.06 | 0.895 | 1 | 0.794 | 0.723 | 0.457 | 0.357 | 0.298 | 0.279 | 0.353 | 0.335 | 0.311 | 0.298 | 0.329 | 0.321 | 0.263 | 0.248 | 0.189 |
| NCI-H1915 | 1.11 | 1.12 | 1.13 | 1.1 | 0.72 | 0.767 | 0.716 | 0.726 | 0.664 | 0.534 | 0.541 | 0.554 | 0.509 | 0.51 | 0.494 | 0.43 | 0.383 | 0.208 |
| NCI-H1944 | 1.15 | 1.31 | 1.21 | 1.05 | 0.568 | 0.436 | 0.398 | 0.389 | 0.381 | 0.346 | 0.312 | 0.303 | 0.279 | 0.301 | 0.286 | 0.234 | 0.223 | 0.176 |
| NCI-H1975 | 0.946 | 0.906 | 0.909 | 0.803 | 0.72 | 0.67 | 0.608 | 0.557 | 0.51 | 0.684 | 0.563 | 0.568 | 0.526 | 0.488 | 0.378 | 0.346 | 0.181 | 0.132 |
| NCI-H1993 | 0.755 | 0.76 | 0.78 | 0.645 | 1.02 | 0.668 | 0.747 | 0.759 | 0.443 | 0.466 | 0.662 | 0.526 | 0.504 | 0.653 | 0.667 | 0.725 | 0.642 | 0.273 |
| NCI-H2085 | 0.994 | 0.957 | 0.902 | 0.757 | 0.934 | 0.969 | 0.874 | 0.646 | 0.598 | 0.491 | 0.482 | 0.468 | 0.444 | 0.438 | 0.441 | 0.43 | 0.4 | 0.421 |
| NCI-H2087 | 0.913 | 0.863 | 1.09 | 1.12 | 1.35 | 1.44 | 1.32 | 1.17 | 0.647 | 0.299 | 0.231 | 0.293 | 0.204 | 0.252 | 0.209 | 0.174 | 0.0887 | 0.0971 |
| NCI-H2126 | 0.731 | 0.731 | 0.684 | 0.695 | 0.989 | 1.03 | 1.03 | 0.989 | 0.736 | 0.389 | 0.334 | 0.361 | 0.331 | 0.316 | 0.317 | 0.351 | 0.321 | 0.334 |
| NCI-H2347 | 0.995 | 0.992 | 0.966 | 0.865 | 0.768 | 0.787 | 0.683 | 0.666 | 0.618 | 0.414 | 0.455 | 0.44 | 0.426 | 0.48 | 0.387 | 0.361 | 0.339 | 0.261 |
| NCI-H2405 | 0.899 | 0.873 | 0.854 | 0.588 | 0.829 | 0.724 | 0.716 | 0.673 | 0.483 | 0.553 | 0.516 | 0.484 | 0.44 | 0.515 | 0.531 | 0.571 | 0.532 | 0.453 |
| NCI-H3122 | 1.04 | 0.983 | 1.16 | 1.08 | 0.973 | 1.01 | 0.99 | 0.973 | 0.667 | 0.206 | 0.2 | 0.173 | 0.165 | 0.191 | 0.217 | 0.208 | 0.181 | 0.187 |
| PC-3 [JPC-3] | 0.999 | 0.974 | 1.02 | 0.917 | 0.904 | 0.752 | – | 0.784 | 0.625 | 0.518 | 0.534 | 0.533 | 0.49 | 0.529 | 0.47 | 0.486 | 0.442 | 0.378 |
| PC-14 | 1.06 | 0.965 | 0.938 | 0.802 | 0.349 | 0.352 | 0.242 | 0.332 | 0.23 | 0.573 | 0.448 | 0.436 | 0.0558 | 0.521 | 0.493 | 0.449 | 0.157 | 0.0723 |
| RERF-LC-KJ | 0.909 | 0.877 | 0.9 | 0.711 | 0.882 | 1.18 | 0.997 | 0.945 | 0.794 | 1.01 | 1.06 | 1.07 | 0.748 | 1.06 | 1.09 | 1 | 0.584 | 0.278 |
